Test results from patent US12708630B2, “Combined therapy of 4′-thio-5-aza-2′-deoxycytidine and Venetoclax” (PINOTBIO, INC., priority 2021, dated 2026).

Columns and labels:
Experiment in all cases: drug activity profiling cytotoxicity
Assay type in all cases: cell-based
22Rv1 = conditions: Homo sapiens; 22Rv1 cell line, Prostate; read-out: Aza-T-dCyd IC50
Summary of the method: (§1)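 Each line's cytotoxic response to Aza-T-dCyd was recorded within a 200-line profiling study designed to find predictive markers.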

A549 = conditions: Homo sapiens; A549 cell line, Lung (NSCLC); read-out: Aza-T-dCyd IC50
Summary of the method: as §1

AGS = conditions: Homo sapiens; AGS cell line, Stomach; read-out: Aza-T-dCyd IC50
Summary of the method: as §1

BE(2)C = conditions: Homo sapiens; BE(2)C cell line, CNS (Neuroblastoma); read-out: Aza-T-dCyd IC50
Summary of the method: as §1

C-4 II = conditions: Homo sapiens; C-4 II cell line, Female GU (Cervix); read-out: Aza-T-dCyd IC50
Summary of the method: as §1

COR-L23 = conditions: Homo sapiens; COR-L23 cell line, Lung (NSCLC); read-out: Aza-T-dCyd IC50
Summary of the method: as §1

DOHH-2 = conditions: Homo sapiens; DOHH-2 cell line, B-cell lymphoma; read-out: Aza-T-dCyd IC50
Summary of the method: as §1

EB2 = conditions: Homo sapiens; EB2 cell line, Burkitt's lymphoma; read-out: Aza-T-dCyd IC50
Summary of the method: as §1

HT-1080 = conditions: Homo sapiens; HT-1080 cell line, Sarcoma; read-out: Aza-T-dCyd IC50
Summary of the method: as §1

HT-1197 = conditions: Homo sapiens, HT1197; HT-1197 cell line, Bladder; read-out: Aza-T-dCyd IC50
Summary of the method: as §1

HeLa = conditions: Homo sapiens; HeLa cell line, Female GU (Cervix); read-out: Aza-T-dCyd IC50
Summary of the method: as §1

Hs 729 = Hs 729 cell line, Sarcoma; read-out: Aza-T-dCyd IC50
Summary of the method: as §1

Hs 936.T(C1) = Hs 936.T(C1) cell line, Skin (Melanoma); read-out: Aza-T-dCyd IC50
Summary of the method: as §1

HuP-T4 = conditions: Homo sapiens; HuP-T4 cell line, Pancreas; read-out: Aza-T-dCyd IC50
Summary of the method: as §1

MALME3M = conditions: Homo sapiens, Malme-3M; MALME3M cell line, Skin (Melanoma); read-out: Aza-T-dCyd IC50
Summary of the method: as §1

MDA MB 468 = conditions: Homo sapiens; MDA MB 468 cell line, Breast; read-out: Aza-T-dCyd IC50
Summary of the method: as §1

MES-SA = conditions: Homo sapiens; MES-SA cell line, Sarcoma; read-out: Aza-T-dCyd IC50
Summary of the method: as §1

MeWo = conditions: Homo sapiens; MeWo cell line, Skin (Melanoma); read-out: Aza-T-dCyd IC50
Summary of the method: as §1

NCI-H295R = conditions: Homo sapiens; NCI-H295R cell line, Endocrine (Adrenal gland); read-out: Aza-T-dCyd IC50
Summary of the method: as §1

NTERA-2 cl.D1 = conditions: Homo sapiens; NTERA-2 cl.D1 cell line, Testis; read-out: Aza-T-dCyd IC50
Summary of the method: as §1

OE21 = OE21 cell line, Head and Neck; read-out: Aza-T-dCyd IC50
Summary of the method: as §1

OE33 = conditions: Homo sapiens; OE33 cell line, Head and Neck; read-out: Aza-T-dCyd IC50
Summary of the method: as §1

PA-1 = conditions: Homo sapiens; PA-1 cell line, Female GU (Ovary); read-out: Aza-T-dCyd IC50
Summary of the method: as §1

PFSK-1 = conditions: Homo sapiens; PFSK-1 cell line, CNS (Glioma); read-out: Aza-T-dCyd IC50
Summary of the method: as §1

SK-BR-3 = conditions: Homo sapiens; SK-BR-3 cell line, Breast; read-out: Aza-T-dCyd IC50
Summary of the method: as §1

SK-MEL-28 = conditions: Homo sapiens; SK-MEL-28 cell line, Skin (Melanoma); read-out: Aza-T-dCyd IC50
Summary of the method: as §1

SK-UT-1 = conditions: Homo sapiens; SK-UT-1 cell line, Sarcoma; read-out: Aza-T-dCyd IC50
Summary of the method: as §1

SW579 = SW579 cell line, Endocrine (Thyroid); read-out: Aza-T-dCyd IC50
Summary of the method: as §1

T47D = conditions: Homo sapiens; T47D cell line, Breast; read-out: Aza-T-dCyd IC50
Summary of the method: as §1

Thp1 = conditions: Homo sapiens, THP-1; Thp1 cell line, AML; read-out: Aza-T-dCyd IC50
Summary of the method: as §1

WiDr = conditions: Homo sapiens; WiDr cell line, Colon; read-out: Aza-T-dCyd IC50
Summary of the method: as §1

`Nc1ncn([C@H]2CC(O)[C@@H](CO)S2)c(=O)n1` (stereo partly shown) [Aza-T-dCyd, 4′-thio-5-aza-2′-deoxycytidine] gave an IC50 (22Rv1) of 2.71 µM, an IC50 (A549) of 0.19 µM and an IC50 (AGS) of 0.0584 µM. The IC50 (BE(2)C) was 0.373 µM, the IC50 (C-4 II) was 0.773 µM and the IC50 (COR-L23) was 0.0944 µM. The IC50 (DOHH-2) was 0.609 µM, the IC50 (EB2) was 8.19 µM and the IC50 (HT-1080) was 0.12 µM. The IC50 (HT-1197) was 7.13 µM, the IC50 (HeLa) was 1.81 µM and the IC50 (Hs 729) was greater than 10 µM. The IC50 (Hs 936.T(C1)) was 0.398 µM, the IC50 (HuP-T4) was 0.321 µM and the IC50 (MALME3M) was 7.45 µM. The IC50 (MDA MB 468) was 1.34 µM, the IC50 (MES-SA) was 0.135 µM and the IC50 (MeWo) was 1.04 µM. It also gave an IC50 (NCI-H295R) greater than 10 µM, an IC50 (NTERA-2 cl.D1) of 0.0427 µM and an IC50 (OE21) of 0.152 µM. The IC50 (OE33) was 0.161 µM, the IC50 (PA-1) was 0.0392 µM and the IC50 (PFSK-1) was 7.61 µM. The IC50 (SK-BR-3) was 9.32 µM, the IC50 (SK-MEL-28) was 2.5 µM and the IC50 (SK-UT-1) was 0.343 µM. For the same compound, the IC50 (SW579) was 1.05 µM, the IC50 (T47D) was greater than 10 µM and the IC50 (Thp1) was 5.12 µM. The IC50 (WiDr) was 0.263 µM.
